A short description of data set [1]: Lipophilicity, logD of the compound at pH 7.4 by chromatographic method. In kind it is physicochemical. The following applies: buffer.
The target in data set [2] is Bromodomain-containing protein 4 (Homo sapiens, UniProt O60885, Y97A). The data set is described as follows: Displacement of Alexa Fluor 647 labelled ligand from His6-tagged BRD4 BD2 (1 to 477 residues)/BD1 Y97A mutant (unknown origin) after 30 mins by TR-FRET assay. Background: In TR-FRET formats the signal depends on donor and acceptor labels being close together.

For data set [3], the target named is Bromodomain-containing protein 4 (Homo sapiens, UniProt O60885, Y390A). As to the kind of experiment: Displacement of Alexa Fluor 647 labelled ligand from His6-thr-tagged BRD4 BD1 (1 to 477 residues)/BD2 Y390A mutant (unknown origin) after 30 mins by TR-FRET assay.
Data set [4] concerns Bromodomain-containing protein 4 (Homo sapiens), O60885 [UNDEFINED MUTATION]. The data set is described as follows: Selectivity index, […] for His6-thr-tagged BRD4 BD1 (1 to 477 residues)/BD2 Y390A mutant (unknown origin) to pIC50 for His6-tagged BRD4 BD2 (1 to 477 residues)/BD1 Y97A mutant (unknown origin).
Data set [5] deals with T1, ATPase family AAA domain-containing protein 2 (Homo sapiens, UniProt Q6PL18).
T1 sequence (Q6PL18 whole entry): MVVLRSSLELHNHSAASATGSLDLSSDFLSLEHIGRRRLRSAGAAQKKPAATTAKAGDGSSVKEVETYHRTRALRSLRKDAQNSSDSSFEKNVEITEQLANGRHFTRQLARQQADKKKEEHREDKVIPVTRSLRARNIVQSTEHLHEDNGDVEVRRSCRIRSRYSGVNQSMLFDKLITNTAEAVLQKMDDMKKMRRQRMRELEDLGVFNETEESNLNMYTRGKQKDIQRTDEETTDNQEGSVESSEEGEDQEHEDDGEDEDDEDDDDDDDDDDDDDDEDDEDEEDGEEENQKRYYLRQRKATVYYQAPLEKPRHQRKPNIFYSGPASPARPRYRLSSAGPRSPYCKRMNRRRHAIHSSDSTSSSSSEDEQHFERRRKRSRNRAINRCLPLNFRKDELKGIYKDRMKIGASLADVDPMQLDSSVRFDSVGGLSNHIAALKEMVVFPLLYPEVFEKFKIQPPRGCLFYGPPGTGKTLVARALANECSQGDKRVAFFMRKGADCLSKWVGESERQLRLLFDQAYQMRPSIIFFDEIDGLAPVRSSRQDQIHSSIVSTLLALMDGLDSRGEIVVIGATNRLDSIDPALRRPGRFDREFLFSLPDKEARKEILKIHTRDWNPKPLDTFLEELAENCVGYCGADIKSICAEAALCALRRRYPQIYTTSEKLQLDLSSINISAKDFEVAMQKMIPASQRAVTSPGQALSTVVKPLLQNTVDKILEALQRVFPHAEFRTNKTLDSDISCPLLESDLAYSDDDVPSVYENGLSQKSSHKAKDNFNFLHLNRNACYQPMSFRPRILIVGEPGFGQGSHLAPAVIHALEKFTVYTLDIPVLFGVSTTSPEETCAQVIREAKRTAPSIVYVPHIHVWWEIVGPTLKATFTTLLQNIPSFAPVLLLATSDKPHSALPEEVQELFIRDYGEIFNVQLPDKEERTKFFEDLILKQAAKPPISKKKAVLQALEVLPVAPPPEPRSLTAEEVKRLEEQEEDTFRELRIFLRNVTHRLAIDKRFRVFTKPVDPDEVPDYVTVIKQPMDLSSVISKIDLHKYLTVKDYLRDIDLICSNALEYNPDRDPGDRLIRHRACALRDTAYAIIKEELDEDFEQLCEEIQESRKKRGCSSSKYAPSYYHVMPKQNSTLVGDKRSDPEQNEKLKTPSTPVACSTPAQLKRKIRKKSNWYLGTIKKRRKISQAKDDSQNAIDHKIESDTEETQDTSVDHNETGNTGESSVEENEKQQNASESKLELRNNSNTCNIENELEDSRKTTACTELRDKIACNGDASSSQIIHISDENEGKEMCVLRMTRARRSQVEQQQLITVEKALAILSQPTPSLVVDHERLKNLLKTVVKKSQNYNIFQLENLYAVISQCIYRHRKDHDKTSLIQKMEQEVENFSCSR
As to the kind of experiment: Inhibition of ATAD2 (unknown origin) by TR-FRET assay.

A value given as a limit tells only on which side of the number the result lay.

The term chromatographic logD denotes lipophilicity estimated from chromatographic retention. Lower therefore signals a more hydrophilic compound. Turning to `CO[C@H]1CNC[C@@H](OCC2CCC(F)(F)CC2)[C@@H]1Nc1ncc(-c2cncc(C)c2)c2cc(C)c(=O)[nH]c12`, the chromatographic logD in data set [1] was found to be 3.17.

The IC50 is the concentration needed to halve the response being measured. For the compound `Cc1cc2c(-c3cnn(C)c3)cnc(N[C@@H]3CCN(C)C[C@H]3C(=O)NC3CCCCC3)c2[nH]c1=O`, the half-maximal inhibitory concentration (IC50) was 20 µM in data set [2] and 0.0794 µM in data set [3]. This compound also registered a Selectivity Index in data set [4] of 251. The same compound displayed a chromatographic logD in data set [1] of 2.43.

Consider `Cc1coc(-c2cnc(N[C@@H]3CCN(C)C[C@H]3C(=O)NC3CCCCC3)c3[nH]c(=O)c(C)cc23)c1`, for which the figures for the half-inhibitory concentration (IC50) in data set [2] and in data set [3] were 20 µM and 0.0398 µM, respectively. The compound also came in with a Selectivity Index in data set [4] of 501. The same compound displayed a chromatographic logD in data set [1] of 4.46.

On to `Cc1cc2c(-c3ccco3)cnc(N[C@H]3CCNC[C@@H]3C(=O)NC3CCCCC3)c2[nH]c1=O`, for which the 50% inhibitory concentration (IC50) in data set [2] is 10 µM; in data set [3], 1.58 µM. In data set [1], the chromatographic logD was determined as 3.12.

Regarding `Cc1ccoc1-c1cnc(N[C@@H]2CCN(C)C[C@H]2C(=O)NC2CCCCC2)c2[nH]c(=O)c(C)cc12`, the results for the concentration for half-maximal inhibition (IC50) in data set [2] and in data set [3] were 15.8 µM and 0.0501 µM, respectively. The compound further gave a Selectivity Index in data set [4] of 316. Also, the chromatographic logD in data set [1] is 4.35.

On to `Cc1ccc(-c2cnc(N[C@@H]3CCN(C)C[C@H]3C(=O)NC3CCCCC3)c3[nH]c(=O)c(C)cc23)o1`, for which the figures for the IC50 in data set [2] and in data set [3] were 15.8 µM and 0.0251 µM, respectively. Also, in data set [4], the Selectivity Index worked out at 631. The same compound showed a chromatographic logD in data set [1] of 4.33.

As to `Cc1cc2c(-c3cccs3)cnc(N[C@@H]3CCN(C)C[C@H]3C(=O)NC3CCCCC3)c2[nH]c1=O`, the values for the 50% inhibitory concentration (IC50) in data set [2] and in data set [3] were 3.98 µM and 0.0158 µM, respectively. Also, in data set [4], the Selectivity Index was 251. This compound also returned a chromatographic logD in data set [1] of 4.61.

For the compound `Cc1ccc(-c2cnc(N[C@@H]3CCN(C)C[C@H]3C(=O)NC3CCCCC3)c3[nH]c(=O)c(C)cc23)s1`, the results for the IC50 in data set [2] and in data set [3] were over 50.1 µM and 0.0631 µM, respectively. In data set [4], the Selectivity Index is over 794. Moreover, the chromatographic logD in data set [1] stood at 5.3.

As to `Cc1csc(-c2cnc(N[C@@H]3CCN(C)C[C@H]3C(=O)NC3CCCCC3)c3[nH]c(=O)c(C)cc23)c1`, the concentration for half-maximal inhibition (IC50) was 15.8 µM in data set [2] and 0.0501 µM in data set [3]. This compound also showed a Selectivity Index in data set [4] of 316. Moreover, the chromatographic logD in data set [1] was 5.27.

Turning to `Cc1cc2c(C3=CCCC3)cnc(N[C@@H]3CCNC[C@H]3C(=O)NC3CCCCC3)c2[nH]c1=O` (mixture of isomers), the IC50 in data set [2] is 39.8 µM; in data set [3], 0.2 µM. The compound further came in with a Selectivity Index in data set [4] of 200. The chromatographic logD in data set [1] came to 4.4.

Regarding `Cc1cc2ccnc(N[C@@H]3CCNC[C@H]3C(=O)N[C@@H]3CCCOC3)c2[nH]c1=O` (mixture of isomers), the IC50 in data set [2] was over 50.1 µM; in data set [5], over 39.8 µM; in data set [3], 3.98 µM. Also, the Selectivity Index in data set [4] is over 10. Besides, the chromatographic logD in data set [1] stood at 0.85.

With `Cc1cc2c(-c3ccccc3)cnc(N[C@@H]3CCNC[C@H]3C(=O)NC3CCCCC3)c2[nH]c1=O` (mixture of isomers), the values for the concentration for half-maximal inhibition (IC50) in data set [2] and in data set [3] were 25.1 µM and 0.631 µM, respectively. The same compound displayed a Selectivity Index in data set [4] of 40. In data set [1], the chromatographic logD turned out to be 3.36.

As to `Cc1cc2ccnc(N[C@@H]3CCNC[C@H]3C(=O)NCC3CCCC3)c2[nH]c1=O` (mixture of isomers), the values for the IC50 in data set [2], in data set [5] and in data set [3] were over 50.1 µM, over 39.8 µM and 1.58 µM, respectively. This compound came in with a Selectivity Index in data set [4] of over 30. In addition, the chromatographic logD in data set [1] worked out at 2.36.

As to `Cc1cc2ccnc(N[C@@H]3CCNC[C@H]3C(=O)NC3CCOCC3)c2[nH]c1=O` (mixture of isomers), the half-maximal inhibitory concentration (IC50) in data set [2] was 12.6 µM; in data set [5] it was over 39.8 µM; in data set [3] it was 2.51 µM. The same compound yielded a Selectivity Index in data set [4] of 5. In data set [1], this compound showed a chromatographic logD of 0.71.

For the compound `Cc1cc2c(C3=CCOCC3)cnc(N[C@@H]3CCNC[C@H]3C(=O)NC3CCCCC3)c2[nH]c1=O` (mixture of isomers), the IC50 in data set [2] is 39.8 µM; in data set [3] it was 1.26 µM. For the same compound, in data set [4], the Selectivity Index was 30. In data set [1], this compound registered a chromatographic logD of 2.07.

For the compound `Cc1cc2c(-c3cnn(C)c3)cnc(N[C@@H]3CCNC[C@H]3C(=O)NC3CCCCC3)c2[nH]c1=O` (mixture of isomers), the IC50 in data set [2] was 15.8 µM; in data set [3] it was 0.158 µM. The Selectivity Index in data set [4] came out at 100. The compound further had a chromatographic logD in data set [1] of 1.47.

For `Cc1cc2ccnc(N[C@@H]3CCNC[C@H]3C(=O)NCC(C)C)c2[nH]c1=O` (mixture of isomers), the figures for the IC50 in data set [2], in data set [5] and in data set [3] were over 50.1 µM, over 39.8 µM and 2 µM, respectively. Also, the Selectivity Index in data set [4] is over 25. In addition, the chromatographic logD in data set [1] came out at 1.6.

On to `Cc1cc2c(-c3ccsc3)cnc(N[C@@H]3CCNC[C@H]3C(=O)NC3CCCCC3)c2[nH]c1=O` (mixture of isomers), for which the figures for the IC50 in data set [2] and in data set [3] were over 50.1 µM and 0.1 µM, respectively. The compound further registered a Selectivity Index in data set [4] of over 501. Besides, in data set [1], the chromatographic logD is 3.79.

Take `Cc1cc2c(C3=CCCCC3)cnc(N[C@@H]3CCNC[C@H]3C(=O)NC3CCCCC3)c2[nH]c1=O` (mixture of isomers): the IC50 in data set [2] was 12.6 µM; in data set [3], 1 µM. For the same compound, the Selectivity Index in data set [4] stood at 10. The compound further showed a chromatographic logD in data set [1] of 4.78.

As for `Cc1cc2ccnc(N[C@@H]3CCNC[C@H]3C(=O)N[C@H]3CCCOC3)c2[nH]c1=O` (mixture of isomers), the IC50 in data set [2] was over 50.1 µM; in data set [5] it was over 39.8 µM; in data set [3], 25.1 µM. Further, the Selectivity Index in data set [4] was over 2. Moreover, in data set [1], the chromatographic logD is 0.98.

Turning to `Cc1cc2ccnc(N[C@@H]3CCNC[C@H]3C(=O)NCC3CC3)c2[nH]c1=O` (mixture of isomers), the IC50 was over 50.1 µM in data set [2], over 39.8 µM in data set [5] and 3.16 µM in data set [3]. This compound also registered a Selectivity Index in data set [4] of over 15. The compound also yielded a chromatographic logD in data set [1] of 1.05.

Consider `Cc1cc2c(-c3ccoc3)cnc(N[C@@H]3CCNC[C@H]3C(=O)NC3CCCCC3)c2[nH]c1=O` (mixture of isomers), for which the figures for the IC50 in data set [2] and in data set [3] were 12.6 µM and 0.0398 µM, respectively. This compound also returned a Selectivity Index in data set [4] of 316. This compound showed a chromatographic logD in data set [1] of 2.91.

For the compound `C/C=C/c1cnc(N[C@@H]2CCNC[C@H]2C(=O)NC2CCCCC2)c2[nH]c(=O)c(C)cc12` (racemic), the concentration for half-maximal inhibition (IC50) in data set [2] is 31.6 µM; in data set [3] it was 0.126 µM. The compound also returned a Selectivity Index in data set [4] of 250. In data set [1], this compound had a chromatographic logD of 3.55.

Regarding `Cc1cc2c(-c3cccs3)cnc(N[C@@H]3CCNC[C@H]3C(=O)NC3CCCCC3)c2[nH]c1=O` (racemic), the IC50 is 31.6 µM in data set [2] and 0.0501 µM in data set [3]. The same compound yielded a Selectivity Index in data set [4] of 630. The compound also showed a chromatographic logD in data set [1] of 3.23.

Regarding `Cc1ccsc1-c1cnc(N[C@@H]2CCN(C)C[C@H]2C(=O)NC2CCCCC2)c2[nH]c(=O)c(C)cc12` (relative stereo), the results for the half-inhibitory concentration (IC50) in data set [2] and in data set [3] were 31.6 µM and 0.1 µM, respectively. The compound also registered a Selectivity Index in data set [4] of 316. The chromatographic logD in data set [1] worked out at 5.13.

As to `Cc1cncc(-c2cnc(N[C@@H]3CCNC[C@H]3C(=O)NC3CCCCC3)c3[nH]c(=O)c(C)cc23)c1` (relative stereo), the concentration for half-maximal inhibition (IC50) in data set [2] was over 50.1 µM; in data set [3], 1.26 µM. In data set [4], this compound gave a Selectivity Index of over 40. This compound also came in with a chromatographic logD in data set [1] of 2.51.

Source of the values: ChEMBL document CHEMBL4725292 (J Med Chem, 2020).
